What was measured:
acetylcholinesterase = biological target: T1, acetylcholinesterase (Rattus norvegicus, UniProt P37136); assay: Inhibition of acetylcholinesterase (enzyme assay); assay type: biochemical
T1 construct: The acetylcholinesterase used in this test was obtained from rat's corpus striatum; from tissue; host or cells: rat corpus striatum
T1 sequence (P37136 32-614): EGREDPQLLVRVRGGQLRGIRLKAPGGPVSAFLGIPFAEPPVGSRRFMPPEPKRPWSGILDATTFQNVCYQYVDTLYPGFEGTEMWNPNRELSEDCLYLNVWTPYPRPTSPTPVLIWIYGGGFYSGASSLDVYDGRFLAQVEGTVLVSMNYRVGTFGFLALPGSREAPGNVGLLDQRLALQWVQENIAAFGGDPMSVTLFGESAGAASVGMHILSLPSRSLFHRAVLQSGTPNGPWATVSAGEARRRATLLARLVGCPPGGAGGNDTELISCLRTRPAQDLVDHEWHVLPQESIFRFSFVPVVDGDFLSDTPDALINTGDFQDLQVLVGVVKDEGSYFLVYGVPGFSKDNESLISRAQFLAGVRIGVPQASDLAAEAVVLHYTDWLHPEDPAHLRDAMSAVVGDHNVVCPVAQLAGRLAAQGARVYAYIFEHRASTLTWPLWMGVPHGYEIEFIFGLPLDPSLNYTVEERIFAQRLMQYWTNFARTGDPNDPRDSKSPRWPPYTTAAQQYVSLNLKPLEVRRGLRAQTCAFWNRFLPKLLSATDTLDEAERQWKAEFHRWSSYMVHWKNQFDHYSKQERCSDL
Description: The ability to inhibit acetylcholinesterase was determined by the method (enzyme assay) described in Clinica Chimica Acta, 115 (1981) 163-170. The acetylcholinesterase used in this test was obtained from rat's corpus striatum.

[1] = tested on: deficit of memory induced by cycloheximide; assay: Passive avoidance test; assay type: in vivo; conditions: Dose 0.032 mg/kg i.p.; ddY strain male mice given cycloheximide 30 mg/kg S.C.; step-down latency 24 hours after training
From the text: 6-Weeks old ddY strain male mice (20 per group) were used. The effect of the test compound on deficit of memory induced by cycloheximide (a protein synthesis inhibitor) in passive avoidance task was examined.
The apparatus consists of a grid floor enclosed by a transparent acryl glass wall each section of which was 30 cm². At the center of this grid a wooden platform of 4 x 4 x 4 cm was fixed. This apparatus was set in a wooden semisoundproof box of 35 x 35 x 90 cm fitted with a 15W tungsten lamp.
Each mouse in groups (A), (B) and (C) was placed on the platform.
When the mouse stepped down from the platform and placed all its paws on the grid floor, an intermittent electrical footshock (1Hz, 0.5 sec, 60V, DC) was delivered for 15 seconds through the grid floor. […]
24 Hours after the training, each mouse was placed again on the platform and the response latency to step down from the platform was measured to an extent of 300 seconds at the longest.
Results were recorded as the mean response latency of step down for each experimental group of mice. […]

| Structure (SMILES) | IC50 (acetylcholinesterase) [nM] | Percentage of Recovery (%) [1] [%] |
| --- | --- | --- |
| Cc1ccc2c(N)c3c(nc2c1)CC(C)(C)CC3O (racemic) [(±)-9-Amino-1-hydroxy-3,3,6-trimethyl-1,2,3,4-tetrahydroacridine] | 870 |  |
| CC1(C)CCc2c(nc3cc(Cl)ccc3c2N)C1 [9-Amino-6-chloro-3,3-dimethyl-1,2,3,4-tetrahydroacridine] |  | 95 |
